Experimental data reported in ChEMBL document CHEMBL6134884, “Identification of JNJ-61803534, a RORγt Inverse Agonist for the Treatment of Psoriasis” (J Med Chem, 2025).
≈ marks a conversion by molar mass, not a printed value.

What was measured:
[1] = target: T1, Nuclear receptor subfamily 1 group I member 2 (Homo sapiens, UniProt O75469); experiment: Activation of human PXR at 1 uM relative to control; assay type: toxicity
T1 sequence (O75469 whole entry): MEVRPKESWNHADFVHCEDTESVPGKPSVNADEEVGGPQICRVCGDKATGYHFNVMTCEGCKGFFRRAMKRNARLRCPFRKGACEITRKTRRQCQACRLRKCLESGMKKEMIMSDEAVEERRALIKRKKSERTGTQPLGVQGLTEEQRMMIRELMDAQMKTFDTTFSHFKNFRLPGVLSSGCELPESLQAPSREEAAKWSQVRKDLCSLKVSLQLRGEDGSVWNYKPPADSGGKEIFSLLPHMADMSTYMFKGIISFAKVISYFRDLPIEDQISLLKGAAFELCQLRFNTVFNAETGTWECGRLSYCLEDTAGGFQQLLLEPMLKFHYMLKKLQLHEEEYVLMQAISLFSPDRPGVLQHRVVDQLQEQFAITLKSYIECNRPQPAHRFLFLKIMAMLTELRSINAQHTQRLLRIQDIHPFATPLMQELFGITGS

[2] = target: T2, Nuclear receptor ROR-gamma (Homo sapiens, UniProt P51449); experiment: Inverse agonist activity at RORgammat in human whole blood assessed as IL-17A production incubated for 1 hrs by ELISA analysis; assay type: tissue-based
T2 sequence (P51449 whole entry): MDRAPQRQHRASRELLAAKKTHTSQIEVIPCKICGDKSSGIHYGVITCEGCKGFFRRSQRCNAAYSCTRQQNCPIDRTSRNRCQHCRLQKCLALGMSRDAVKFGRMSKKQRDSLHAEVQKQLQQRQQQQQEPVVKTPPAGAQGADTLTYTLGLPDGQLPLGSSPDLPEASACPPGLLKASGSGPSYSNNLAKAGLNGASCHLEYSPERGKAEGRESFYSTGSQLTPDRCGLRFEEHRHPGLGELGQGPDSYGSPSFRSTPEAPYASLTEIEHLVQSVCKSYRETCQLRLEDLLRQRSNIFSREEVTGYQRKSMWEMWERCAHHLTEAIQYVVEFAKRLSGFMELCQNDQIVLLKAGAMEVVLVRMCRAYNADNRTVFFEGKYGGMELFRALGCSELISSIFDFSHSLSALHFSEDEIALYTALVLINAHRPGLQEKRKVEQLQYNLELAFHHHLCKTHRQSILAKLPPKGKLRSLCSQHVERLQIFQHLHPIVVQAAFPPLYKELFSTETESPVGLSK

[3] = target: T3, Nuclear receptor ROR-beta (Homo sapiens, UniProt Q92753); experiment: Inverse agonist activity at human RORbeta assessed as dissociation constant by thermofluor assay
T3 sequence (Q92753 whole entry): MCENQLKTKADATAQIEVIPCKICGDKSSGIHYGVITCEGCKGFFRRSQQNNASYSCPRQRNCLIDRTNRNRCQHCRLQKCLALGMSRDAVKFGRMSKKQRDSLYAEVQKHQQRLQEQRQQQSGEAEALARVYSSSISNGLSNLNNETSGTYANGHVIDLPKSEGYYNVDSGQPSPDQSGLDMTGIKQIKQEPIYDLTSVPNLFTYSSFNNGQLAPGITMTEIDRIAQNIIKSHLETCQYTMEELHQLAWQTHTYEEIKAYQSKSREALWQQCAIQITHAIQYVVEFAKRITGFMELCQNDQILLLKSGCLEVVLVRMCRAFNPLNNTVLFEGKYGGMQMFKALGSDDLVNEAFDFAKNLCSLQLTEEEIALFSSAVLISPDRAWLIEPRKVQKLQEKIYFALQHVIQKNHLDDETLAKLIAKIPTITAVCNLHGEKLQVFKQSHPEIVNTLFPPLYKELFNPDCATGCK

[4] = target: T4, PXR (Homo sapiens, UniProt O75469); experiment: Activation of human PXR at 5 uM relative to control; assay type: toxicity; settings: read-out: Activity
T4 sequence (O75469 whole entry): T1 sequence (O75469 whole entry)

[5] = Aqueous solubility of the compound at pH 7; assay type: physicochemical; settings: aqueous solution
[6] = Aqueous solubility of the compound at pH 2; assay type: physicochemical; settings: aqueous solution
[7] = target: T2, Nuclear receptor ROR-gamma; experiment: Inverse agonist activity at human RORgammat by mammalian 1-hybrid assay
[8] = target: T2, Nuclear receptor ROR-gamma; experiment: Inverse agonist activity at N-terminal his-tagged wild type human RORgammat LBD domain expressed in Escherichia coli assessed as dissociation constant by thermofluor assay
[9] = Solubility of compound in SGF; assay type: physicochemical
[10] = Solubility of compound in FaSSIF; assay type: physicochemical
[11] = target: T4, PXR; experiment: Activation of human PXR at 10 uM relative to control; assay type: toxicity; settings: read-out: Activity
[12] = target: Cytochrome P450 3A4 (Homo sapiens, UniProt P08684); experiment: Induction of CYP3A4 in human hepatocytes at 10 uM relative to control; assay type: ADME, cell-based, Hepatocyte
[13] = Cmax in male Sprague-Dawley rat at 1 mg/kg, iv or 5 mg/kg, po measured 24 hrs post dose by LC-MS/MS analysis; assay type: ADME, organism-based; settings: in vivo
[14] = Drug uptake in male rat plasma at 50 mg/kg, po after 5 days; assay type: ADME, organism-based; settings: in vivo, 120 h, time 5 day

Cytochrome P450 3A4, sequence (P08684 whole entry): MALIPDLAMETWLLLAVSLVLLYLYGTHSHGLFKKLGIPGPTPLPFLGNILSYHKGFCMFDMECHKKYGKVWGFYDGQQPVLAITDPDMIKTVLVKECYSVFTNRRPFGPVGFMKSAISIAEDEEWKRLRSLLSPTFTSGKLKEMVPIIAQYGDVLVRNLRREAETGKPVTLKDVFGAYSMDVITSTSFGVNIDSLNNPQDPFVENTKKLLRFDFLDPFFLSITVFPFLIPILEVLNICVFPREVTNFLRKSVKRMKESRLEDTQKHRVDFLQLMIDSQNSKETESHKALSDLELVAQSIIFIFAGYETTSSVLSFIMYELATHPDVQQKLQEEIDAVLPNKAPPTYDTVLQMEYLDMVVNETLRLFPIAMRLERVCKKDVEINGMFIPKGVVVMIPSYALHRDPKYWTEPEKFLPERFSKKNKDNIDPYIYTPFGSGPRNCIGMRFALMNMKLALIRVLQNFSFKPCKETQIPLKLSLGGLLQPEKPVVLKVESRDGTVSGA

Compound | Activity [1] | IC50 [2] | Kd [3] | activity at 5 µM [4] | solubility [5] | solubility [6] | IC50 [7] | Kd [8] | solubility [9] | solubility [10] | activity at 10 µM [11] | Activity [12] | Cmax [13] | Drug uptake [14]
C[C@H](NS(=O)(=O)c1ccc(-c2sc(C(=O)NCC(C)(C)O)nc2C(=O)N2CCC(F)CC2)c(Cl)c1Cl)C(F)(F)F | 13% |  |  |  |  |  |  |  |  |  |  |  |  | 
C[C@H]1C[C@@H](F)CCN1C(=O)c1nc(C(=O)NCC(C)(C)O)sc1-c1ccc(C(O)(C(F)(F)F)C(F)(F)F)c(Cl)c1Cl | 14% | 210 nM | 1000 nM | 40% | < 4 µM | < 4 µM |  |  |  |  |  |  |  | 
CN(C(=O)c1nc(C(=O)NCC(C)(C)O)sc1-c1ccc(C(O)(C(F)(F)F)C(F)(F)F)c(Cl)c1Cl)C1CCC1 | 1.9% |  | 2300 nM | 9.1% |  |  | 9.4 nM | 0.4 nM |  |  |  |  |  | 
Cc1cc(C(O)(C(F)(F)F)C(F)(F)F)ccc1-c1sc(C(=O)NCC(C)(C)O)nc1C(=O)N1CCC[C@@H]1C | 12% | 530 nM | 15000 nM |  | 86 µM (≈ 48.8 µg/mL) | 35 µM (≈ 19.9 µg/mL) |  |  | 63 µM (≈ 35.8 µg/mL) | 250 µM (≈ 142 µg/mL) | 31% | 16% |  | 
C[C@H]1CCCN1C(=O)c1nc(C(=O)NCC(C)(C)O)sc1-c1ccc(C(O)(C(F)(F)F)C(F)(F)F)cc1C(F)F | 27% |  | 13000 nM |  | 13 µM (≈ 7.85 µg/mL) | 12 µM (≈ 7.24 µg/mL) |  |  | 22 µM (≈ 13.3 µg/mL) | 99 µM (≈ 59.7 µg/mL) | 74% | 33% |  | 
CC(C)(O)CNC(=O)c1nc(C(=O)N2CCC(F)CC2)c(-c2ccc(C(O)(C(F)(F)F)C(F)(F)F)c(Cl)c2Cl)s1 | 1.5% | 890 nM | 1900 nM | 14% | < 4 µM | < 4 µM |  |  |  |  |  |  |  | 
C[C@H]1CC(F)(F)CN1C(=O)c1nc(C(=O)NCC(C)(C)O)sc1-c1ccc(C(O)(C(F)(F)F)C(F)(F)F)c(Cl)c1Cl | 27% | 120 nM | 2300 nM | 50% | < 4 µM | < 4 µM |  |  |  |  |  |  |  | 
CCN(CC)C(=O)c1nc(C(=O)N2C[C@H](O)C[C@H](O)C2)sc1-c1ccc(C(O)(C(F)(F)F)C(F)(F)F)c(Cl)c1Cl | 2.7% | 190 nM | 13000 nM | 4.7% | 41 µM (≈ 26.2 µg/mL) | 52 µM (≈ 33.2 µg/mL) |  |  |  |  |  |  | 100 nM | 
CCN(CC)C(=O)c1nc(C(=O)NCC(C)(C)O)sc1-c1ccc(C(O)(C(F)(F)F)C(F)(F)F)c(Cl)c1Cl | 32% |  | 3500 nM | 76% | < 4 µM | < 4 µM |  |  |  |  |  | 16% |  | Active
CCN(C(=O)c1nc(C(=O)NCC(C)(C)O)sc1-c1ccc(C(O)(C(F)(F)F)C(F)(F)F)c(Cl)c1Cl)C1CCC1 | 10% |  | 1100 nM | 21% |  |  |  | 0.2 nM |  |  |  |  |  | 
Cc1cc(C(O)(C(F)(F)F)C(F)(F)F)ccc1-c1sc(C(=O)NCC(C)(C)O)nc1C(=O)N1CCCC[C@@H]1C | 8% | 160 nM | 1400 nM |  | < 4 µM | < 4 µM |  | 0.25 nM | < 4 µM | 4.6 µM (≈ 2.68 µg/mL) | 24% | 10% |  | 
C[C@H]1CCCCN1C(=O)c1nc(C(=O)NCC(C)(C)O)sc1-c1ccc(C(O)(C(F)(F)F)C(F)(F)F)cc1C(F)F | 28% |  | 850 nM |  | < 4 µM | < 4 µM |  |  | < 4 µM | 14 µM (≈ 8.65 µg/mL) | 84% |  |  | 
C[C@H]1CCCN1C(=O)c1nc(C(=O)NCC(C)(C)O)sc1-c1ccc(C(O)(C(F)(F)F)C(F)(F)F)cc1Cl | 3.6% | 240 nM | 4900 nM |  | < 4 µM | 6.3 µM (≈ 3.7 µg/mL) |  | 0.63 nM | 6.3 µM (≈ 3.7 µg/mL) | 130 µM (≈ 76.4 µg/mL) | 27% | 11% |  | 
Cc1c(C(N)=O)cc(-c2ccc(C(O)(C(F)(F)F)C(F)(F)F)cc2)n1CC1CCCCC1 |  |  |  |  |  |  | 1700 nM |  |  |  |  |  |  | 
Cc1c(S(N)(=O)=O)cc(-c2ccc(S(=O)(=O)NC(C)(C)C)cc2)n1CC1CCCCC1 |  |  |  |  |  |  | 1780 nM |  |  |  |  |  |  | 
C[C@H]1CCCCN1C(=O)c1nc(C(=O)NCC(C)(C)O)sc1-c1ccc(C(O)(C(F)(F)F)C(F)(F)F)cc1Cl | 13% | 81 nM | 430 nM |  | < 4 µM | < 4 µM |  | 0.058 nM | < 4 µM | 77 µM (≈ 46.4 µg/mL) | 25% |  |  | 
